The experiment deals with EGFR (UniProt P00533).
EGFR, sequence (P00533 whole entry, looked up): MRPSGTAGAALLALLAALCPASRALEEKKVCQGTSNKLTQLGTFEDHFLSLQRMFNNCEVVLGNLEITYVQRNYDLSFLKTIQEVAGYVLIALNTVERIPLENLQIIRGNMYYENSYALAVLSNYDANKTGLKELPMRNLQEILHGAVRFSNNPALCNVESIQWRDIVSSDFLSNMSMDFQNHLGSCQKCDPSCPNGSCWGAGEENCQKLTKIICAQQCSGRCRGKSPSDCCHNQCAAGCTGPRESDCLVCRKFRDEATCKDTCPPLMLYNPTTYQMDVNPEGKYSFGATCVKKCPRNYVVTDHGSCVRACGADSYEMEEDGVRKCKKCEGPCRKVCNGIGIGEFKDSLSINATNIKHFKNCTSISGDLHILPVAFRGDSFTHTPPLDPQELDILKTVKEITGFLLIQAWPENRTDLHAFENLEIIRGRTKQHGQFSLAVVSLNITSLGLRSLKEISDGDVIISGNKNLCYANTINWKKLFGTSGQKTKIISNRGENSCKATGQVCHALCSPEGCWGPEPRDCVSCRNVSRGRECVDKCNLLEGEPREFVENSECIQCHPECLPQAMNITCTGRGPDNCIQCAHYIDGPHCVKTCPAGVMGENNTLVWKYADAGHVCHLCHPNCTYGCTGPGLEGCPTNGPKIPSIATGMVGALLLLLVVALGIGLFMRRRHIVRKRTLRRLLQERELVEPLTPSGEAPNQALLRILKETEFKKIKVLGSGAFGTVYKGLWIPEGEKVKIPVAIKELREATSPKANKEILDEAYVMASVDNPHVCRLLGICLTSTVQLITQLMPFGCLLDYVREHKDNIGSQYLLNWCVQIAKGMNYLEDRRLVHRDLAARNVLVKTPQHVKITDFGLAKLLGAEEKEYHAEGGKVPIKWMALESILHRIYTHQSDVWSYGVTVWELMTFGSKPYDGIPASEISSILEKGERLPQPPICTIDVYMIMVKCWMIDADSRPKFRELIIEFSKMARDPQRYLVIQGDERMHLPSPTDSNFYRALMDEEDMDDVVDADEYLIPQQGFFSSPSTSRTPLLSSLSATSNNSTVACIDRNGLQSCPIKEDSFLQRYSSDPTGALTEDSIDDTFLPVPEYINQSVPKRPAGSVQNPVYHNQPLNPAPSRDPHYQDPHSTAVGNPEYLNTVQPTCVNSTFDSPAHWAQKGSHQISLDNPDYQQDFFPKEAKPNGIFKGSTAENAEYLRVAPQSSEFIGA
As to `NCc1cccc(C#Cc2cncnc2Nc2ccc(OCc3cccc(F)c3)c(Cl)c2)n1`, the IC50 is at most 10 µM.

The molecule `Fc1cccc(COc2ccc(Nc3ncncc3C#Cc3cccc(CNCc4ccccc4)n3)cc2Cl)c1` registered an IC50 of at most 10 µM.

`CNCc1cccc(C#Cc2cncnc2Nc2ccc(OCc3cccc(F)c3)c(Cl)c2)n1` came in with a half-inhibitory concentration (IC50) of at most 10 µM.

Molecule `C(=C\c1cncnc1Nc1ccc2c(cnn2Cc2ccccc2)c1)/c1cn[nH]c1` registered an IC50 of 0.1 to 1 µM.

For the molecule `Fc1cccc(COc2ccc(Nc3ncncc3C#Cc3ccccc3)cc2Cl)c1`, the IC50 was at most 10 µM.

As for `CC(=O)NCCNCc1cccc(C#Cc2cncnc2Nc2ccc(OCc3cccc(F)c3)c(Cl)c2)n1`, the IC50 was at most 10 µM.

As to `CSc1nccc(C#Cc2cncnc2Nc2ccc(OCc3cccc(F)c3)c(Cl)c2)n1`, the IC50 was at most 10 µM.

In turn, `COCc1cccc(C#Cc2cncnc2Nc2ccc(OCc3cccc(F)c3)c(Cl)c2)n1` displayed an IC50 of over 1 µM.

The molecule `Cn1cncc1C#Cc1cncnc1Nc1ccc(OCc2cccc(F)c2)c(Cl)c1` gave an IC50 of at most 10 µM.

Molecule `COCCOCC(=O)Nc1cccc(C#Cc2cncnc2Nc2ccc(OCc3cccc(F)c3)c(Cl)c2)c1` had a 50% inhibitory concentration (IC50) of at most 10 µM.

As for `Fc1cccc(COc2ccc(Nc3ncncc3C#Cc3cccc(CNCCN4CCOCC4)n3)cc2Cl)c1`, the IC50 is 0.1 to 1 µM.

In turn, `N=C(N)Nc1cccc(C#Cc2cncnc2Nc2ccc(OCc3cccc(F)c3)c(Cl)c2)c1` yielded an IC50 of 0.1 to 1 µM.

Molecule `Fc1cccc(COc2ccc(Nc3ncncc3/C=C/c3cccnc3)cc2Cl)c1` yielded an IC50 of at most 10 µM.

For the molecule `Nc1ccc(C#Cc2cncnc2Nc2ccc(OCc3cccc(F)c3)c(Cl)c2)cn1`, the half-inhibitory concentration (IC50) is at most 10 µM.

Consider `CS(=O)(=O)CC(=O)Nc1cccc(C#Cc2cncnc2Nc2ccc(OCc3cccc(F)c3)c(Cl)c2)c1`, for which the IC50 is at most 10 µM.

`Oc1cccnc1/C=C/c1cncnc1Nc1ccc2c(cnn2Cc2ccccc2)c1` came in with an IC50 of at most 10 µM.

Turning to `C(#Cc1cncnc1Nc1ccc2c(ccn2Cc2ccccc2)c1)c1ccccc1`, the IC50 is at most 10 µM.

With `CC(=O)Nc1cccc(/C=C/c2cncnc2Nc2ccc(OCc3cccc(F)c3)c(Cl)c2)c1`, the IC50 was under 0.1 µM.

Molecule `C(=C\c1cncnc1Nc1ccc2[nH]c(Cc3ccccc3)nc2c1)/c1cn[nH]c1` showed a concentration for half-maximal inhibition (IC50) of at most 10 µM.

`O=Cc1ccc(C#Cc2cncnc2Nc2ccc(OCc3cccc(F)c3)c(Cl)c2)o1`: the IC50 was at most 10 µM.

In turn, `N#CCCNCc1cccc(C#Cc2cncnc2Nc2ccc(OCc3cccc(F)c3)c(Cl)c2)n1` showed an IC50 of at most 10 µM.

The molecule `OCc1ccc(C#Cc2cncnc2Nc2ccc(OCc3cccc(F)c3)c(Cl)c2)o1` returned an IC50 of at most 10 µM.

In turn, `CN(CCO)C(=O)NCc1cccc(C#Cc2cncnc2Nc2ccc(OCc3cccc(F)c3)c(Cl)c2)n1` returned a 50% inhibitory concentration (IC50) of at most 10 µM.

For `C(=C\c1cncnc1Nc1ccc2c(cnn2Cc2ccccc2)c1)/c1ccncc1`, the 50% inhibitory concentration (IC50) was at most 10 µM.

The molecule `CSCCC(=O)Nc1cccc(C#Cc2cncnc2Nc2ccc(OCc3cccc(F)c3)c(Cl)c2)c1` yielded an IC50 of at most 10 µM.

`CC(C)(C)OC(=O)NCc1cccc(C#Cc2cncnc2Nc2ccc(OCc3cccc(F)c3)c(Cl)c2)c1`: the IC50 is at most 10 µM.

In the case of `C(=C\c1cncnc1Nc1ccc(Oc2ccccc2)cc1)/c1ccccc1`, the concentration for half-maximal inhibition (IC50) is at most 10 µM.

In the case of `CNC(=O)NCc1cccc(C#Cc2cncnc2Nc2ccc(OCc3cccc(F)c3)c(Cl)c2)n1`, the IC50 is at most 10 µM.

`O=C(NCCN1CCOCC1)NCc1cccc(C#Cc2cncnc2Nc2ccc(OCc3cccc(F)c3)c(Cl)c2)n1` displayed an IC50 of under 0.1 µM.

In the case of `Fc1cccc(COc2ccc(Nc3ncncc3C#Cc3ccsc3)cc2Cl)c1`, the IC50 was at most 10 µM.

The molecule `Oc1ccc(C#Cc2cncnc2Nc2ccc(OCc3cccc(F)c3)c(Cl)c2)cc1` showed a concentration for half-maximal inhibition (IC50) of at most 10 µM.

Turning to `CN(C)CCCC(=O)Nc1cccc(C#Cc2cncnc2Nc2ccc(OCc3cccc(F)c3)c(Cl)c2)n1`, the IC50 is under 0.1 µM.

For the molecule `CS(=O)(=O)CCNCc1cccc(C#Cc2cncnc2Nc2ccc(OCc3cccc(F)c3)c(Cl)c2)c1`, the IC50 is at most 10 µM.

On to `COCCNC(=O)NCc1cccc(C#Cc2cncnc2Nc2ccc(OCc3cccc(F)c3)c(Cl)c2)n1`, for which the IC50 is at most 10 µM.

`Fc1cccc(COc2ccc(Nc3ncncc3C#Cc3ccnc(N4CCOCC4)n3)cc2Cl)c1` had an IC50 of at most 10 µM.

For the molecule `CS(=O)(=O)CCNc1cccc(C#Cc2cncnc2Nc2ccc(OCc3cccc(F)c3)c(Cl)c2)n1`, the IC50 was over 1 µM.

A word on the IC50: it is the concentration at which inhibition is half-maximal. High values mean a need for much substance, low ones inhibition by little substance.

For the origin of these results see the Kinase Knowledgebase extract (Sharma et al. 2016).
